The values that follow come from patent publication US7041701B2, “Triterpenoid derivatives” (Univerzita Palackeho V Olomouci, priority 2000, dated 2006).

Test [1] deals with HepG2 human hepatocellular carcinoma. Put plainly: MTT cytotoxicity assay, HepG2. Type of test: cell-based. To be noted: 72 hours, read-out: TCS50. The source says: (§1) One of the parameters used as the basis for colorimetric assays is the metabolic activity of viable cells. For example, a microtiter assay which uses the tetrazolium salt MTT is now widely used to quantitate cell proliferation and cytotoxicity [Hajdúch M, Mihál V, Minarík J, Fáber E, Safárová M, Weigl E, Antálek P.: Cytotechnology, 1996, 19, 243–245]. For instance, this assay is used in drug screening programs and in chemosensitivity testing. Because tetrazolium salts are cleaved only by metabolically active cells, these assays exclusively detect viable cells. In the case of the MTT assay, yellow soluble tetrazolium salt is reduced to a coloured water-insoluble formazan salt. After it is solubilized, the formazan formed can easily and rapidly be quantified in a conventional ELISA plate reader at 570 nm (maximum absorbancy). The quantity of reduced formazan corresponds to the number of vital cells in the culture. […]
(§2) The cell suspensions that were prepared and diluted according to the particular cell type and the expected target cell density (2,500–30,000 cells per well based on cell growth characteristics) were added by pipette (80 μl) into 96/well microtiter plates. […] Usually, test compounds were evaluated at six 4-fold dilutions. […] The tumour cell survival (TCS) was calculated using the following equitation: TCS=(ODdrug exposed well/mean ODcontrol wells)×100%. […]

Test [2] deals with A549 human lung adenocarcinoma. Put plainly: MTT cytotoxicity assay, A549. To be noted: 72 hours, read-out: TCS50. Type of test: cell-based.
Source text: as §1, §2
(In general: Tetrazolium dyes change colour on reduction, which living cells bring about.)

In test [3] the test system is BT549 human breast cancer, p53mut/mut. As to the kind of experiment: MTT cytotoxicity assay, BT549. In kind it is cell-based. To be noted: 72 hours, read-out: TCS50.
Source text: as §1, §2

In test [4] the test system is HT-29 human colon cancer. As to the kind of experiment: MTT cytotoxicity assay, HT-29. In kind it is cell-based. The conditions noted are these: 72 hours, read-out: TCS50.
Source text: as §1, §2

Test [5] deals with OVCAR-3 human ovarian cancer. As to the kind of experiment: MTT cytotoxicity assay, OVCAR-3. In kind it is cell-based. To be noted: 72 hours, read-out: TCS50.
Source text: as §1, §2

The subject of test [6] is CEM-VCR bulk human T-lymphoblastic leukemia, vincristin resistant. As to the kind of experiment: MTT cytotoxicity assay, CEM-VCR bulk. In kind it is cell-based. To be noted: 72 hours, read-out: TCS50.
Source text: as §1, §2

Test [7] has as its system A549 lung cancer cells. As to the kind of experiment: Apoptosis morphology by scanning electron microscopy. In kind it is cell-based, human. The conditions noted are these: A549, 2 μM, 12 hours, scanning electron microscopy (FIG. 1). From the text:
To analyse the mechanisms of betulinine-induced cytotoxicity, it is important to distinguish apoptosis from the other major form of cell death, necrosis. Finally, at the tissue level, apoptosis produces little or no inflammation, since shrunken portions of the cell are engulfed by the neighbouring cells, especially macrophages, rather than being released into the extracellular fluid. In contrast, in necrosis, cellular contents are released into the extracellular fluid, and thus have an irritant affect on the nearby cells, causing inflammation. […] Thirdly, at the molecular level, a number of biochemical processes play an important role in the induction of apoptosis. However, the majority of them are not well understood, and they result in activation of proteases and nucleases, which finally destruct key biological macromolecules—proteins and DNA. For the detection of apoptotic versus necrotic modes of cell death, the morphology was assessed by scanning electron microscopy.
A549 cell line was cultured on tissue culture treated glass coverslips in 6-well culture plates with or without 2 μM concentration of I.3 or betulinic acid at 37° C. and 5% CO2 for 12 hours. Following incubation, the coverslips were washed in Hank's buffered salt solution and processed as described below.
Cells were fixed in 2% glutaraldehyde/PBS overnight at 4° C., dried and covered with gold under vacuum. […]

Test [8] relates to Rb protein. As to the kind of experiment: Rb protein phosphorylation state, SDS-PAGE/Western blot in CEM cells. In kind it is cell-based, human. As to the method: Since Rb protein contains multiple phosphorylation sites for CDKs, its phosphorylated form has molecular weight about 110 kDa, while the molecular weight of hypophosphorylated protein is only 105 kDa This small difference in molecular weight is enough to separate both forms by conventional SDS-PAGE electrophoresis.
CEM cells were cultured in Dulbeco's modified essential medium with 4.5 g dextrose/l, 10% of foetal calf serum, 2 mM glutamine, 100 U/ml penicillin and 100 μg/ml streptomycin with/without below indicated concentrations of betulkic acid (BA) or I.3. At selected time points, cells were harvested, washed in ice cold Hank's balanced salt solution and solubilized on ice using the SDS-PAGE sample buffer containing protease and phosphatase inhibitors (10 μg/ml of leupeptin, 10 μg/ml of aprotinin, 10 μg/ml of soybean trypsin inhibitor, 100 μmol of benzamide, 1 mM of sodium vanadate, 1 mM of NaF, 1 mM of phenylphosphate) and boiled immediately.
Total cellular proteins (100 μg/well) were separated on SDS-PAGE electrophoresis, blotted on polyvinyldifluoride membranes and total Rb protein, including proteolytic fragment(s) were detected using a pRb monoclonal antibody (Oncogene, Germany, Rb(AS5), Cat# OP66 Rev 2 Sep. 1996 EB, Clone LM95.1) and visualized by chemilumniuscence (ECL-Westeg Blotting System, Amersham). Details of the Western blot technique are described in Ausubel, F. M., Brent, R., Kingston, P E., Moore, D. D., Seidman, J. G., Smith, J. A., Struhl, K (Eds): Short Protocols-in Molecular Biology, 2nd edition, John Wiley & Sons, New York, Chichester, Brisbane, Toronto, Singapore, 1992, page 10–33–10–35.
On the technique in general: Immunoblotting shows a protein as a band on a membrane.

As for `CC(=O)OC[C@@]1(C(=O)O)CC[C@]2(C)[C@H](CC[C@@H]3[C@@]4(C)CC[C@H](OC(C)=O)C(C)(C)[C@@H]4CC[C@]32C)C1=O` [I.3, 3β,28-diacetoxy-18-oxo-19,20,21,29,30-pentanorlupan-22-oic acid], the IC50 in test [1] came out at 1700 nM; in test [2] it was 1000 nM; in test [3], 2000 nM; in test [4], 1600 nM; in test [5], 1000 nM; in test [6], 2500 nM. Besides, the “morphologic markers of apoptosis” value in test [7] was “cytoplasmatic blebbing, cellular fragmentation and formation of apoptotic bodies”. Further, the “time to appearance of hypophosphorylated form of Rb” value in test [8] (7 μM) was 2 h; in test [8] (20 μM) it was 0.25 h. The “cleavage of Rb protein (42 kDa fragment, caspase activation)” value in test [8] (Western blot) is “time and concentration dependent appearance of an immunoreactive fragment of Rb protein”. Moreover, the “dephosphorylation of Rb protein (shift 110 kDa to 105 kDa)” value in test [8] (Western blot (FIG. 3)) is “rapidly dephosphorylated”.
